Results taken from paper PMC11714206, “Massively Parallel Screening of Toll/Interleukin‐1 Receptor (TIR)‐Derived Peptides Reveals Multiple Toll‐Like Receptors (TLRs)‐Targeting Immunomodulatory Peptides” (Advanced Science, 2024).
One block for each sequence: values may come before it.

Molecular target: T1, MAL^TIR (Homo sapiens, UniProt P58753)
T1 construct: MAL (residues 79–221); 6xHis; made in house; host or cells: E. coli BL21 (DE3)
Experiment: T‐Surf phage library (P8 and P3) selection against MAL^TIR, four rounds, NGS read counts
Assay type: binding
Settings: for P8_MAL Rank (after) / P8_MAL Rank (before): P8 library; for P3_MAL Rank (after) / P3_MAL Rank (before): P3 library; for Population: 4th round of selection against MAL TIR, share of NGS reads
Protocol: T‐Surf libraries were screened against the immobilized TIR domains of two major human TLR adaptor proteins, MAL^TIR and MyD88^TIR, allowing cross‐species selection of TIR‐binding motifs with 190 946 TIR‐derived peptides in a single binding assay (Scheme 1). Enriched phage pools from the fourth round of selection were analyzed using NGS after barcoding the peptide‐coding regions of the phage pools.
Phage display screening was performed by coating two wells of a 96‐well plate (Maxisorp, Thermo Fisher Scientific) with 100 µL of 5 µg mL^−1 TIR domains overnight; then, the coated wells were blocked with 200 µL of blocking buffer (0.2% BSA in PBS) and set aside for 1 h at 4 °C with gentle shaking. Next, 100 µL of the phage library was added to the wells and incubated for 1 h at room temperature (RT; 20 – 22 °C) with gentle shaking. The plate was washed four times with PBS containing 0.5% Tween‐20; the bound phages were eluted by adding 100 µL of 100 mM HCl to each well. The elute was neutralized with 10 µL of 1.0 M Tris‐HCl (pH 11.0). E. coli TG1 cells were grown to the log phase (A600 = ≈0.6), and 1 mL of the culture was incubated with 100 µL of the eluted phages for 30 min at 37 °C, with shaking at 200 rpm. Next, 1 µL of M13KO7 helper phages was added, followed by incubation for 45 min at 37 °C, with shaking. Subsequently, the cells were transferred to 25 mL of 2× yeast extract tryptone/carbenicillin/kanamycin medium and incubated overnight at 37 °C with shaking at 200 rpm. The amplified phages were precipitated with 20% PEG‐8000/2.5 M NaCl to be used for the next round of selection.
The naïve T‐Surf libraries in P8 and P3 and the enriched phage pools after four rounds were barcoded for NGS as previously described.^[ [59] ^] Briefly, 5 µL of the phage pool was used as a template for 20 cycles of a 50 µL PCR reaction using […] each of forward and reverse barcoded primers and PrimeSTAR Max DNA Polymerase. The PCR products were purified using Expin Gel SV (GeneAll). The NGS samples were quantified using qPCR, following the qPCR Quantification Protocol Guide (KAPA Library Quantification kits for Illumina Sequencing Platform), and qualified using the TapeStation High Sensitivity D1000 ScreenTape (Agilent Technologies). The indexed libraries were further sequenced by Macrogen (Seoul, Republic of Korea) using the NovaSeq platform (Illumina) with 100 bp paired‐end reads. The reads were demultiplexed by barcodes and filtered for an average Phred quality score of at least 30, followed by trimming the flanking consensus sequences using Cutadapt (version 2.3). Peptide sequence populations were analyzed according to the read counts.

[1] = selection against MAL TIR, rank by count after grouping
[2] = selection against MAL TIR, rank by count before grouping
[3] = selection against MAL, rank after grouping
[4] = selection against MAL, rank before grouping
[5] = P8_MAL: rank by count after grouping
[6] = P8_MAL: rank by count before grouping
[7] = P3_MAL: rank by count after grouping
[8] = P3_MAL: rank by count before grouping
[9] = 4R selection against MAL, rank after grouping
[10] = 4R selection against MAL, rank before grouping
[11] = selection against MAL, rank by count after grouping
[12] = selection against MAL, rank by count before grouping
[13] = P8_MAL pool: P8 T-Surf phage library

T1 sequence (P58753 79-221): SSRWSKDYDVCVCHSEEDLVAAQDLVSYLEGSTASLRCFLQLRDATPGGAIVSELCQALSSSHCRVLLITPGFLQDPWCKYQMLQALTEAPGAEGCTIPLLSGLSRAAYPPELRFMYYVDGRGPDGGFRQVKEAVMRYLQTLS

P8_MAL Rank (after) [1]: 245
P8_MAL Rank (before) [2]: 2627
Sequence: TFLRHLYNALVQAGLH

P8_MAL Rank (after) [3]: 482
P8_MAL Rank (before) [4]: 1378
Sequence: WFMMKFRTVLDRVPEV

Rank (after) [5]: 103
Rank (before) [6]: 1645
Sequence: AFFWAQPKSVLGNPTV

Rank (after) [7]: 179
Rank (before) [8]: 1445
Sequence: YAFTGHRHRYLVKRGV

Rank (after) [5]: 429
Rank (before) [6]: 2726
Sequence: KLLWEKCTFFLPSLSR

P3_MAL Rank (after) [9]: 584
P3_MAL Rank (before) [10]: 2814
Sequence: HHTGSYGQALAEHEKR

P8_MAL Rank (after) [9]: 583
P8_MAL Rank (before) [10]: 1451
Sequence: SFMLKFRTVLHHVHDV

P3_MAL Rank (after) [9]: 612
P3_MAL Rank (before) [10]: 2490
Sequence: RLLKWNEELHLFHSWV

P3_MAL Rank (after) [11]: 750
P3_MAL Rank (before) [12]: 1498
Sequence: YLNSGYPWRYDRLRFA

P3_MAL Rank (after) [11]: 720
P3_MAL Rank (before) [12]: 1146
Sequence: FLNFRGLVVRNYFLVH

P8_MAL Rank (after) [11]: 690
P8_MAL Rank (before) [12]: 1128
Sequence: WFYVRLVILALRDNNM

P3_MAL Rank (after) [11]: 717
P3_MAL Rank (before) [12]: 1132
Sequence: FAFTGQMLRYMVRSGL

Rank (after) [7]: 478
Rank (before) [8]: 1518
Sequence: YLKWGYTRCWDRLRFA

P8_MAL Rank (after) [9]: 632
P8_MAL Rank (before) [10]: 2423
Sequence: HFWWIPLKSILGETSF

P8_MAL Rank (after) [9]: 616
P8_MAL Rank (before) [10]: 1968
Sequence: AFLDPFLINLIQASIL

Population [13]: 0.00402%
Sequence: AVLYTFLINLTHPTNF

P8_MAL Rank (after) [9]: 613
P8_MAL Rank (before) [10]: 1676
Sequence: AFFWEQLRTVLRTPTL

P3_MAL Rank (after) [1]: 230
P3_MAL Rank (before) [2]: 2137
Sequence: LQNHCKLALTKVANLV

P8_MAL Rank (after) [9]: 612
P8_MAL Rank (before) [10]: 1710
Sequence: AFFWEQMRTVLGKPTT

Rank (after) [5]: 391
Rank (before) [6]: 2537
Sequence: TFLGHLYNTLVQASIF

P8_MAL Rank (after) [11]: 724
P8_MAL Rank (before) [12]: 2549
Sequence: TFLGFLYIALVQAGFL

P3_MAL Rank (after) [1]: 206
P3_MAL Rank (before) [2]: 2531
Sequence: RLLKWKEEMHQFHSWV

P8_MAL Rank (after) [1]: 198
P8_MAL Rank (before) [2]: 802
Sequence: AFFLGTAAYRAGQTDD

Population (P3_MAL pool: P3 T-Surf phage library): 0.00676%
Sequence: YQWRNALTAAANLSGW

Population [13]: 0.00309%
Sequence: WFYERLVSLILRDSKV

Rank (after) [5]: 182
Rank (before) [6]: 923
Sequence: LVAHEISKKMKIFATI

P8_MAL Rank (after) [3]: 539
P8_MAL Rank (before) [4]: 1406
Sequence: WSYERLVRLILRDTKV

P8_MAL Rank (after) [9]: 620
P8_MAL Rank (before) [10]: 2596
Sequence: TFLGHLYNTLVQPAIH

Rank (after) [5]: 411
Rank (before) [6]: 1115
Sequence: WFFEPLVILIPRDTKV

P3_MAL Rank (after) [3]: 495
P3_MAL Rank (before) [4]: 3097
Sequence: SLRKNLLSNLIEECKR

Population [13]: 0.00309%
Sequence: AFLYTFLNNLTHPTNF

Rank (after) [7]: 392
Rank (before) [8]: 2181
Sequence: LSVESWRQALEKAGQL

P8_MAL Rank (after) [1]: 247
P8_MAL Rank (before) [2]: 1291
Sequence: WFYERMVRLILRDTKV

Rank (after) [5]: 164
Rank (before) [6]: 2209
Sequence: RNFVAYLFQALAKPA

P8_MAL Rank (after) [11]: 702
P8_MAL Rank (before) [12]: 1809
Sequence: AFLYSLLFNRTHPNYF

Rank (after) [5]: 423
Rank (before) [6]: 2328
Sequence: PQDLEWFYERLVSLIL

P8_MAL Rank (after) [9]: 674
P8_MAL Rank (before) [10]: 2533
Sequence: TFLYTFLINLTHPTNY

P3_MAL Rank (after) [1]: 220
P3_MAL Rank (before) [2]: 1438
Sequence: YAFTGHLTGYLVQRGV

P3_MAL Rank (after) [9]: 654
P3_MAL Rank (before) [10]: 2631
Sequence: PVAHEISKKMQLFATI

Rank (after) [7]: 171
Rank (before) [8]: 2695
Sequence: PNLRTNVLHYLMRTKT

Population [13]: 0.00402%
Sequence: WFYKRLVSLILRDTKV

Rank (after) [5]: 174
Rank (before) [6]: 1185
Sequence: WFYERLVRLILRDTKA

P8_MAL Rank (after) [9]: 602
P8_MAL Rank (before) [10]: 1987
Sequence: DAEDMFWTQLREALDA

Rank (after) [7]: 188
Rank (before) [8]: 1460
Sequence: YAFTGHLQRYLLQRGV
